{"source": "patent USRE39591E1", "about": "“6-O-substituted ketolides having antibacterial activity” (Abbott Laboratories, priority 1996, dated 2007)", "system": "up to 32 different microorganisms", "experiment": "in vitro antibacterial activity (MIC), agar dilution on Brain Heart Infusion (BHI) agar with Steers replicator", "type": "cell-based", "details": "unit assumed", "in_short": "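Up to 32 strains were replicator-inoculated (1:100, or 1:10 for Micrococcus and Streptococcus) onto BHI agar plates holding serial compound dilutions and kept 20-24 h at 35-37° C. Plates were read visually against drug-free growth controls, with erythromycin A run alongside; MIC was the lowest concentration giving no growth, slight haze or sparse colonies.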", "data": [{"smiles": "CC[C@H]1OC(=O)[C@H](C)C(=O)[C@H](C)[C@@H](O[C@@H]2O[C@H](C)C[C@H](N(C)C)[C@H]2O)[C@@](C)(OCC=NOCc2ccc3ncccc3c2)C[C@@H](C)C(=O)[C@H](C)[C@H]2NC(=O)O[C@@]21C", "note": "[Example 234, Compound of Formula (IX): L is CO, T is NH, R is —CH2CH═NOCH2(6-quinolyl)]", "values": [{"measurement": "MIC", "setting": "organism code AA", "result": 0.1, "unit": "µg/mL"}, {"measurement": "MIC", "setting": "organism code BB", "result": 0.1, "unit": "µg/mL"}, {"measurement": "MIC", "setting": "organism code CC", "result": "> 100", "unit": "µg/mL"}, {"measurement": "MIC", "setting": "organism code DD", "result": 0.2, "unit": "µg/mL"}, {"measurement": "MIC", "setting": "organism code EE", "result": 0.2, "unit": "µg/mL"}, {"measurement": "MIC", "setting": "organism code FF", "result": 0.1, "unit": "µg/mL"}, {"measurement": "MIC", "setting": "organism code GG", "result": "> 100", "unit": "µg/mL"}, {"measurement": "MIC", "setting": "organism code HH", "result": 0.1, "unit": "µg/mL"}, {"measurement": "MIC", "setting": "organism code II", "result": 0.05, "unit": "µg/mL"}, {"measurement": "MIC", "setting": "organism code JJ", "result": "≤ 0.005", "unit": "µg/mL"}, {"measurement": "MIC", "setting": "organism code KK", "result": 0.05, "unit": "µg/mL"}, {"measurement": "MIC", "setting": "organism code LL", "result": 0.01, "unit": "µg/mL"}, {"measurement": "MIC", "setting": "organism code MM", "result": 100, "unit": "µg/mL"}, {"measurement": "MIC", "setting": "organism code NN", "result": 0.2, "unit": "µg/mL"}, {"measurement": "MIC", "setting": "organism code OO", "result": 0.01, "unit": "µg/mL"}, {"measurement": "MIC", "setting": "organism code PP", "result": 0.1, "unit": "µg/mL"}, {"measurement": "MIC", "setting": "organism code QQ", "result": 50, "unit": "µg/mL"}, {"measurement": "MIC", "setting": "organism code RR", "result": 0.39, "unit": "µg/mL"}, {"measurement": "MIC", "setting": "organism code SS", "result": 50, "unit": "µg/mL"}, {"measurement": "MIC", "setting": "organism code TT", "result": "> 100", "unit": "µg/mL"}, {"measurement": "MIC", "setting": "organism code UU", "result": 0.78, "unit": "µg/mL"}, {"measurement": "MIC", "setting": "organism code VV", "result": 0.1, "unit": "µg/mL"}, {"measurement": "MIC", "setting": "organism code WW", "result": 2, "unit": "µg/mL"}, {"measurement": "MIC", "setting": "organism code XX", "result": 0.03, "unit": "µg/mL"}, {"measurement": "MIC", "setting": "organism code YY", "result": 0.03, "unit": "µg/mL"}, {"measurement": "MIC", "setting": "organism code ZZ", "result": "> 128", "unit": "µg/mL"}, {"measurement": "MIC", "setting": "organism code ZZA", "result": 0.25, "unit": "µg/mL"}]}, {"smiles": "CC[C@H]1OC(=O)[C@H](C)C(=O)[C@H](C)[C@@H](O[C@@H]2O[C@H](C)C[C@H](N(C)C)[C@H]2O)[C@@](C)(OCC=NOCc2cccc3ccccc23)C[C@@H](C)C(=O)[C@H](C)[C@H]2NC(=O)O[C@@]21C", "note": "[Example 235, Compound of Formula (IX): L is CO, T is NH, R is —CH2CH═NOCH2(1-naphthyl)]", "values": [{"measurement": "MIC", "setting": "organism code AA", "result": 0.2, "unit": "µg/mL"}, {"measurement": "MIC", "setting": "organism code BB", "result": 0.2, "unit": "µg/mL"}, {"measurement": "MIC", "setting": "organism code CC", "result": "> 100", "unit": "µg/mL"}, {"measurement": "MIC", "setting": "organism code DD", "result": 0.2, "unit": "µg/mL"}, {"measurement": "MIC", "setting": "organism code EE", "result": 0.2, "unit": "µg/mL"}, {"measurement": "MIC", "setting": "organism code FF", "result": 0.2, "unit": "µg/mL"}, {"measurement": "MIC", "setting": "organism code GG", "result": "> 100", "unit": "µg/mL"}, {"measurement": "MIC", "setting": "organism code HH", "result": 0.2, "unit": "µg/mL"}, {"measurement": "MIC", "setting": "organism code II", "result": 0.05, "unit": "µg/mL"}, {"measurement": "MIC", "setting": "organism code JJ", "result": 0.01, "unit": "µg/mL"}, {"measurement": "MIC", "setting": "organism code KK", "result": 0.01, "unit": "µg/mL"}, {"measurement": "MIC", "setting": "organism code LL", "result": 0.01, "unit": "µg/mL"}, {"measurement": "MIC", "setting": "organism code MM", "result": 25, "unit": "µg/mL"}, {"measurement": "MIC", "setting": "organism code NN", "result": 0.2, "unit": "µg/mL"}, {"measurement": "MIC", "setting": "organism code OO", "result": 0.05, "unit": "µg/mL"}, {"measurement": "MIC", "setting": "organism code PP", "result": 0.39, "unit": "µg/mL"}, {"measurement": "MIC", "setting": "organism code QQ", "result": "> 100", "unit": "µg/mL"}, {"measurement": "MIC", "setting": "organism code RR", "result": 0.78, "unit": "µg/mL"}, {"measurement": "MIC", "setting": "organism code SS", "result": "> 100", "unit": "µg/mL"}, {"measurement": "MIC", "setting": "organism code TT", "result": "> 100", "unit": "µg/mL"}, {"measurement": "MIC", "setting": "organism code UU", "result": 0.78, "unit": "µg/mL"}, {"measurement": "MIC", "setting": "organism code VV", "result": 3.1, "unit": "µg/mL"}, {"measurement": "MIC", "setting": "organism code WW", "result": 4, "unit": "µg/mL"}, {"measurement": "MIC", "setting": "organism code XX", "result": 0.03, "unit": "µg/mL"}, {"measurement": "MIC", "setting": "organism code YY", "result": 0.03, "unit": "µg/mL"}, {"measurement": "MIC", "setting": "organism code ZZ", "result": 32, "unit": "µg/mL"}, {"measurement": "MIC", "setting": "organism code ZZA", "result": 0.5, "unit": "µg/mL"}]}, {"smiles": "CC[C@H]1OC(=O)[C@H](C)C(=O)[C@H](C)[C@@H](O[C@@H]2O[C@H](C)C[C@H](N(C)C)[C@H]2O)[C@@](C)(OCC=NOCc2ccc3ccccc3c2)C[C@@H](C)C(=O)[C@H](C)[C@H]2NC(=O)O[C@@]21C", "note": "[Example 236, Compound of Formula (IX): L is CO, T is NH, R is —CH2CH═NOCH2(2-naphthyl)]", "values": [{"measurement": "MIC", "setting": "organism code AA", "result": 0.2, "unit": "µg/mL"}, {"measurement": "MIC", "setting": "organism code BB", "result": 0.2, "unit": "µg/mL"}, {"measurement": "MIC", "setting": "organism code CC", "result": "> 100", "unit": "µg/mL"}, {"measurement": "MIC", "setting": "organism code DD", "result": 0.2, "unit": "µg/mL"}, {"measurement": "MIC", "setting": "organism code EE", "result": 0.2, "unit": "µg/mL"}, {"measurement": "MIC", "setting": "organism code FF", "result": 0.2, "unit": "µg/mL"}, {"measurement": "MIC", "setting": "organism code GG", "result": "> 100", "unit": "µg/mL"}, {"measurement": "MIC", "setting": "organism code HH", "result": 0.2, "unit": "µg/mL"}, {"measurement": "MIC", "setting": "organism code II", "result": 0.05, "unit": "µg/mL"}, {"measurement": "MIC", "setting": "organism code JJ", "result": 0.05, "unit": "µg/mL"}, {"measurement": "MIC", "setting": "organism code KK", "result": 0.05, "unit": "µg/mL"}, {"measurement": "MIC", "setting": "organism code LL", "result": 0.01, "unit": "µg/mL"}, {"measurement": "MIC", "setting": "organism code MM", "result": 25, "unit": "µg/mL"}, {"measurement": "MIC", "setting": "organism code NN", "result": 0.2, "unit": "µg/mL"}, {"measurement": "MIC", "setting": "organism code OO", "result": 0.05, "unit": "µg/mL"}, {"measurement": "MIC", "setting": "organism code PP", "result": 0.1, "unit": "µg/mL"}, {"measurement": "MIC", "setting": "organism code QQ", "result": 50, "unit": "µg/mL"}, {"measurement": "MIC", "setting": "organism code RR", "result": 0.39, "unit": "µg/mL"}, {"measurement": "MIC", "setting": "organism code SS", "result": "> 100", "unit": "µg/mL"}, {"measurement": "MIC", "setting": "organism code TT", "result": "> 100", "unit": "µg/mL"}, {"measurement": "MIC", "setting": "organism code UU", "result": 0.39, "unit": "µg/mL"}, {"measurement": "MIC", "setting": "organism code VV", "result": 0.2, "unit": "µg/mL"}, {"measurement": "MIC", "setting": "organism code WW", "result": 4, "unit": "µg/mL"}, {"measurement": "MIC", "setting": "organism code XX", "result": 0.03, "unit": "µg/mL"}, {"measurement": "MIC", "setting": "organism code YY", "result": 0.03, "unit": "µg/mL"}, {"measurement": "MIC", "setting": "organism code ZZ", "result": 32, "unit": "µg/mL"}]}, {"smiles": "CC[C@H]1OC(=O)[C@H](C)C(=O)[C@H](C)[C@@H](O[C@@H]2O[C@H](C)C[C@H](N(C)C)[C@H]2O)[C@@](C)(OCCNOCc2ccccc2)C[C@@H](C)C(=O)[C@H](C)[C@H]2NC(=O)O[C@@]21C", "note": "[Example 237, Compound of Formula (IX): L is CO, T is NH, R is —CH2CH2NHOCH2(phenyl)]", "values": [{"measurement": "MIC", "setting": "organism code AA", "result": 0.39, "unit": "µg/mL"}, {"measurement": "MIC", "setting": "organism code BB", "result": 0.39, "unit": "µg/mL"}, {"measurement": "MIC", "setting": "organism code CC", "result": "> 100", "unit": "µg/mL"}, {"measurement": "MIC", "setting": "organism code DD", "result": 0.39, "unit": "µg/mL"}, {"measurement": "MIC", "setting": "organism code EE", "result": 0.39, "unit": "µg/mL"}, {"measurement": "MIC", "setting": "organism code FF", "result": 0.39, "unit": "µg/mL"}, {"measurement": "MIC", "setting": "organism code GG", "result": "> 100", "unit": "µg/mL"}, {"measurement": "MIC", "setting": "organism code HH", "result": 0.39, "unit": "µg/mL"}, {"measurement": "MIC", "setting": "organism code II", "result": 0.1, "unit": "µg/mL"}, {"measurement": "MIC", "setting": "organism code JJ", "result": 0.05, "unit": "µg/mL"}, {"measurement": "MIC", "setting": "organism code KK", "result": 0.05, "unit": "µg/mL"}, {"measurement": "MIC", "setting": "organism code LL", "result": 0.05, "unit": "µg/mL"}, {"measurement": "MIC", "setting": "organism code MM", "result": "> 100", "unit": "µg/mL"}, {"measurement": "MIC", "setting": "organism code NN", "result": 0.2, "unit": "µg/mL"}, {"measurement": "MIC", "setting": "organism code OO", "result": 0.05, "unit": "µg/mL"}, {"measurement": "MIC", "setting": "organism code PP", "result": 0.39, "unit": "µg/mL"}, {"measurement": "MIC", "setting": "organism code QQ", "result": "> 100", "unit": "µg/mL"}, {"measurement": "MIC", "setting": "organism code RR", "result": 0.39, "unit": "µg/mL"}, {"measurement": "MIC", "setting": "organism code SS", "result": "> 100", "unit": "µg/mL"}, {"measurement": "MIC", "setting": "organism code TT", "result": "> 100", "unit": "µg/mL"}, {"measurement": "MIC", "setting": "organism code UU", "result": 0.78, "unit": "µg/mL"}, {"measurement": "MIC", "setting": "organism code VV", "result": 0.39, "unit": "µg/mL"}, {"measurement": "MIC", "setting": "organism code WW", "result": 16, "unit": "µg/mL"}, {"measurement": "MIC", "setting": "organism code XX", "result": 0.03, "unit": "µg/mL"}, {"measurement": "MIC", "setting": "organism code YY", "result": 0.03, "unit": "µg/mL"}, {"measurement": "MIC", "setting": "organism code ZZ", "result": "> 128", "unit": "µg/mL"}, {"measurement": "MIC", "setting": "organism code ZZA", "result": 0.05, "unit": "µg/mL"}]}]}
